Laboratory results as given in article PMC12406255, “Engineering Peptide Modulators for T‑Cell Migration by Structural Scaffold Matching” (Journal of Medicinal Chemistry, 2025).
Read-outs that look alike come from different tables or passages of the source. Positions of bridges follow the written chain, without caps; N, C: chain ends. Non-standard residues stand in square brackets, D forms with d. Residues, ends and D or L forms follow the SMILES beside them. No end group written: not given here. Nle = CCCC[C@H](N)C(=O)O

Columns and labels:
[1] = test system: CD3+ lymphocytes; assay: cells; type: cell-based, human; conditions: for % Inhibition of cell migration compared to control, CD3+: normalized to untreated control, mean ± SEM of 4-6 experiments
Method: 1 Transwell-based migration assay to study lymphocyte transendothelial migration. (A) The general principle of the transwell migration assay is depicted. Endothelial cells (EC) are seeded in transwell inserts and are incubated for 2 days to form an EC monolayer. On the day before the assay, the ECs are cytokine-stimulated to induce the expression of adhesion molecules. In the migration assay, human peripheral blood mononuclear cells (PBMC) are placed into the donor compartment of the transwell setup. After 4 h of incubation time, the migrated cells are harvested from the receiver compartment, stained with fluorescent antibodies and counted using flow cytometry. (B) PBMCs were preincubated with S1P for 1.5 h and then transferred into the donor compartment on top of the EC monolayer. […] Data are shown as mean ± SD of 3 to 5 independent experiments.
(§1) Transwell migration assays were performed similarly as published previously. HMEC-1 cells were seeded at a density of 75,000 cells per well in transwell inserts. Three days after cell seeding, the medium was changed, and the cells were stimulated with 100 ng/mL TNF-α and 20 ng/mL IFN-γ for 16–18 h. On the day of the assay, cells were washed with migration medium (serum-free RPMI medium supplemented with 0.1% BSA) to remove residual cytokines and starved for at least 1 h at 37 °C in migration medium. PBMC were starved for at least 1.5 h in migration medium before addition to the EC. For S1P and lifitegrast-treated samples, the PBMC were preincubated for at least 1.5 h at 37 °C with the ligands before addition to the EC. Pepitem and other peptides were added onto the EC monolayer and preincubated for 15–30 min at 37 °C before the addition of the PBMC. 200,000 PBMC per well were added directly on top of the EC prestimulated with pepitem or other peptides to reach a final volume of 150 μL in the donor compartments. The receiver compartments of the wells were filled with 600 μL RPMI with 20% FBS. After 4 h of migration at 37 °C, the receiver compartment with the migrated cells was collected. The migrated cells were stained with the indicated antibodies: CD3-APC (clone: OKT3, lot: B400127), CD4-PE (clone: OKT4. lot: B379180), CD8-FITC (clone: HIT8a, lot: B370193) from Biolegend and CD3-VioGreen (clone: REA613, lot: 5240502518), CD45RO-FITC (clone: REA611, lot: 5240502519), CD4-PerCP-Vio700 (clone: REA623, lot: 5240506702), CXCR3 PE-Vio615 (clone: REA232, lot: 5240506722), CD196-APC (clone: REA190, lot: 5240506717), CD8-APC-Vio770 (clone: REA734, lot: 5240303993) and CD45RO-PEVio616 (clone: REA611, lot: 5231102514) from Miltenyi Biotec (Bergisch Gladbach, Germany) and counted using precision counting beads (Biolegend) on a CytoflexS flow cytometer (BeckmanCoulter). Data was analyzed using CytExpert (Version 2.4). T cells were gated as CD3^+ cells, T cell subsets were gated as CD4^+ (CD3^+, CD4^+), CD8^+ (CD3^+, CD8^+), memory CD4^+ (CD3^+, CD4^+, CD45RO^+), memory CD8^+ (CD3^+, CD8^+, CD45RO^+) and Th1 cells (CD3^+, CD4^+, CXCR3^+, CCR6^–).
(§2) Data were analyzed using GraphPad Prism software. EC50 values were calculated by three-parameter nonlinear regression analysis. For this, the data points were normalized to the number of migrated cells in untreated (buffer) control samples (100%), and the regression was fitted with the top constraint to 100 and the slope fixed to 1. Statistical significance is indicated in graphs as n.s. not significant, * p < 0.05; ** p < 0.01; *** p < 0.001. The statistical tests used are indicated in the respective figure captions.

[2] = Serum stability assay; type: in vitro ADME; conditions: human serum of healthy donors, lipids removed by centrifugation, 37 °C, peptide 30-60 μM from 10-fold stock in PBS, followed over 48 h, urea/TFA quench, analytical RP-HPLC peak area vs time 0, one-phase decay fit, mean ± SD, n = 2 (pepitem n = 5); for half-life: read-out: Serum t 1/2 (converted)
Method: Stability of peptides in human serum was measured similarly to that previously described. In short, fresh blood from healthy donors was collected in serum collection tubes (Clot Activator Tube, Becton Dickinson, Plymouth, United Kingdom, […]) and incubated at 4 °C for 2 h to allow blood clotting. The serum was separated by centrifugation at 1000 × g for 10 min. To remove lipids from the serum, an additional centrifugation step was performed at 15,000 × g for 15 min at 4 °C, after which the serum was used for the stability assays. For this, the serum was prewarmed for 10 min at 37 °C before the addition of the test compounds. Peptides were prepared at a 10-fold concentration in PBS and diluted to a final concentration between 60 and 30 μM with the serum. The serum-peptide reaction mix was incubated at 37 °C, and 40 μL aliquots were taken at the indicated time points. To stop the reaction, samples were mixed with 40 μL of 6 M urea for 10 min on ice, followed by precipitation of serum proteins by the addition of 40 μL of 20% TFA and incubation for at least 10 min on ice. The precipitate was pelleted at 15,000 × g for 15 min, and 90 μL of the supernatant was freeze-dried. The dry material was resuspended in HPLC solvent A (0.1% TFA in ddH2O). Peptide quantification was performed using analytical HPLC. The remaining peptide relative to the starting point (time point 0) was calculated by peak integration to determine the area under the peak at the designated time points and further calculated in comparison to time point 0 min, which was set as 100%. To calculate the half-life of the peptides in human serum, data points were fitted with a one-phase decay equation.

[3] = test system: memory CD4+ cells (CD3+, CD4+, CD45RO+); type: cell-based, human; conditions: normalized to untreated control, mean ± SEM of 4-6 experiments
Method: as §1, §2

[4] = test system: CD8+ lymphocytes (CD3+, CD8+); type: cell-based, human; conditions: normalized to untreated control, mean ± SEM of 4-6 experiments
Method: as §1, §2

[5] = test system: memory CD8+ cells (CD3+, CD8+, CD45RO+); type: cell-based, human; conditions: normalized to untreated control, mean ± SEM of 4-6 experiments
Method: as §1, §2

[6] = test system: CD4+ lymphocytes (CD3+, CD4+); type: cell-based, human; conditions: normalized to untreated control, mean ± SEM of 4-6 experiments
Method: as §1, §2

[7] = Homo sapiens, Lymphocyte, PBMC preincubated with ligand for 1.5 h, then added onto EC monolayer, 4 h migration, mean ± SD, 3 or more experiments, read-out: EC50, inhibition of CD3+ cell migration

Compound | EC50 [1, 7] | % Inhibition of cell migration compared to control, CD3+ ([1]; 0.1 μM) | % Inhibition of cell migration compared to control, CD3+ ([1]; 1 μM) | effects on T-lymphocyte migration (in words) ([1]; two concentrations (0.1 and 1 μM), equal to untreated control) | half-life [2] | % Inhibition of cell migration compared to control, Memory CD4+ ([3]; 0.1 μM) | % Inhibition of cell migration compared to control, Memory CD4+ ([3]; 1 μM) | % Inhibition of cell migration compared to control, CD8+ ([4]; 0.1 μM) | % Inhibition of cell migration compared to control, CD8+ ([4]; 1 μM) | % Inhibition of cell migration compared to control, Memory CD8+ ([5]; 0.1 μM) | % Inhibition of cell migration compared to control, Memory CD8+ ([5]; 1 μM) | % Inhibition of cell migration compared to control, CD4+ ([6]; 0.1 μM) | % Inhibition of cell migration compared to control, CD4+ ([6]; 1 μM) | EC50 ([1]; 4 h) | Serum t 1/2 [2]
CCCCCCCCCCCCC/C=C/[C@@H](O)[C@@H](N)COP(=O)(O)O [Sphingosine-1-phosphate, reference compound] | 54.6 ± 49.1 nM | – | – | – | – | – | – | – | – | – | – | – | – | – | –
CCCC[C@@H]1NC(=O)[C@H](C(C)C)NC(=O)[C@H](CCCCN)NC(=O)[C@@H](NC(=O)[C@H](CCC(N)=O)NC(=O)[C@H](CCC(=O)O)NC(C)=O)CSSC[C@@H](C(=O)N[C@@H](CCC(=O)O)C(=O)N[C@@H](CCCCN)C(N)=O)NC(=O)[C@H](CC(N)=O)NC(=O)[C@H](CC(=O)O)NC(=O)[C@H](CC(C)C)NC(=O)[C@@H]2CSSC[C@H](NC1=O)C(=O)N[C@@H](Cc1ccc(O)cc1)C(=O)N[C@@H](C)C(=O)N[C@@H](CCC(N)=O)C(=O)N[C@@H](CCCNC(=N)N)C(=O)N[C@@H](Cc1c[nH]cn1)C(=O)N[C@@H](CO)C(=O)N[C@@H](CO)C(=O)N1CCC[C@H]1C(=O)N[C@@H](CCC(=O)O)C(=O)N[C@@H](CC(C)C)C(=O)N[C@@H](CC(C)C)C(=O)N[C@@H](CCCNC(=N)N)C(=O)N[C@@H](CCCNC(=N)N)C(=O)N2 [VhTI variant, reference compound] (Ac-EQCKV[Nle]CYAQRHSSPELLRRCLDNCEK-NH2; disulfide 3-25, 7-21) | – | –3.9 ± 7.0% | –5.2 ± 10.7% | no effects | 15.4 ± 12.9 h | –3.5 ± 2.4% | –11.6 ± 13.2% | 1.6 ± 8.5% | –2.8 ± 15.8% | 4.7 ± 7.4% | –11.6 ± 7.2% | –7.8 ± 9.4% | –6.7 ± 7.0% | – | –
CCCC[C@@H]1NC(=O)[C@H](C(C)C)NC(=O)[C@H](CCCCN)NC(=O)[C@@H](NC(=O)[C@H](CCC(N)=O)NC(=O)[C@H](CCC(=O)O)NC(C)=O)CSSC[C@@H](C(=O)N[C@@H](CCC(=O)O)C(=O)N[C@@H](CCCCN)C(N)=O)NC(=O)[C@H](CC(N)=O)NC(=O)[C@H](CC(=O)O)NC(=O)[C@H](CC(C)C)NC(=O)[C@@H]2CSSC[C@H](NC1=O)C(=O)N[C@@H](Cc1ccc(O)cc1)C(=O)N[C@@H](C)C(=O)N[C@@H](CCC(N)=O)C(=O)NCC(=O)N[C@@H](C)C(=O)N[C@@H](CCC(=O)O)C(=O)N[C@@H](CC(C)C)C(=O)N[C@@H](CO)C(=O)N1CCC[C@H]1C(=O)N[C@@H](CCC(=O)O)C(=O)N[C@@H](CC(C)C)C(=O)N[C@@H](CC(C)C)C(=O)N[C@@H](CCCNC(=N)N)C(=O)N[C@@H](CCCNC(=N)N)C(=O)N2 [VhTI-pep 1] (Ac-EQCKV[Nle]CYAQGAELSPELLRRCLDNCEK-NH2; disulfide 3-26, 7-22) | – | 25.6 ± 6.4% | 33.4 ± 8.5% | – | > 48 h | 15.1 ± 14.2% | 39.5 ± 11.6% | 34.6 ± 8.0% | 38.4 ± 2.4% | 21.2 ± 3.1% | 29.6 ± 6.7% | 23.5 ± 9.7% | 30.3 ± 14.7% | – | –
CCCC[C@@H]1NC(=O)[C@H](C(C)C)NC(=O)[C@H](CCCCN)NC(=O)[C@@H](NC(=O)[C@H](CCC(N)=O)NC(=O)[C@H](CCC(=O)O)NC(C)=O)CSSC[C@@H](C(=O)N[C@@H](CCC(=O)O)C(=O)N[C@@H](CCCCN)C(N)=O)NC(=O)[C@H](CC(N)=O)NC(=O)[C@H](CC(=O)O)NC(=O)[C@H](CC(C)C)NC(=O)[C@@H]2CSSC[C@H](NC1=O)C(=O)N[C@@H](Cc1ccc(O)cc1)C(=O)N[C@@H](CCC(=O)O)C(=O)N[C@@H](CCC(N)=O)C(=O)NCC(=O)N[C@@H](C)C(=O)N[C@@H](CCC(=O)O)C(=O)N[C@@H](CC(C)C)C(=O)N1CCC[C@H]1C(=O)N[C@@H](CCC(=O)O)C(=O)N[C@@H](CC(C)C)C(=O)N[C@@H](CC(C)C)C(=O)N[C@@H](CCCNC(=N)N)C(=O)N[C@@H](CCCNC(=N)N)C(=O)N2 [VhTI-pep 3] (Ac-EQCKV[Nle]CYEQGAELPELLRRCLDNCEK-NH2; disulfide 3-25, 7-21) | – | 1.5 ± 7.6% | 4.6 ± 10.6% | – | > 48 h | –8.7 ± 3.4% | 11.7 ± 10.6% | 10.4 ± 11.2% | 14.0 ± 13.8% | 3.9 ± 9.7% | 3.0 ± 11.6% | –8.9 ± 18.1% | 10.8 ± 10.1% | – | –
CS(=O)(=O)c1cccc(C[C@H](NC(=O)c2c(Cl)cc3c(c2Cl)CCN(C(=O)c2ccc4ccoc4c2)C3)C(=O)O)c1 [lifitegrast, reference compound] | 2.2 ± 3.6 nM | – | – | – | – | – | – | – | – | – | – | – | – | – | –
SVTEQGAELSNEER [Pepitem, reference compound] | – | – | – | – | ~3 h | – | – | – | – | – | – | – | – | 6 ± 6.4 nM | 3.1 ± 0.5 h
